Columns and labels:
[1] = system: isolated human eosinophils; test: Human eosinophil chemotaxis assay (Boyden chamber) with histamine receptor subtype-selective agonists; assay type: cell-based; conditions: in vitro, agonist in bottom wells, 45 minutes, FIG. 9
Experimental: (§1) Eosinophils were isolated from peripheral blood as previously described (Hansel, T T., De Vries I J., Iff T., Rihs S., Wandzilak M., Betz S., Blaser K. and Walker C. (1991). An improved immunomagnetic procedure for the isolation of highly purified human blood eosinophils. J. Imm. Meth. 145:105-10). Chemotaxis was measured using a 48-well Boyden chamber (Neuro Probe Inc., Cabin John, Md., USA). Agonists were diluted in RPMI media (BioWhittaker, Walkersville, Md., USA) containing 0.1% bovine serum albumin (BSA) (Gibco BRL, Gaithersburg, Md., USA) and added to the bottom wells of the chemotaxis chamber. A 5 µm PVP-free polycarbonate filter was used to separate the wells of the chamber (Neuro Probe Inc., Cabin John, Md., USA). Eosinophils were resuspended in RPMI/BSA media at a concentration of 2.5×10^6 cells per ml. 50 µl of this cell suspension were then added to the upper chamber. Chambers were incubated for 45 minutes in a 5% CO2-humidified atmosphere at 37° C. After the incubation period, the filters were removed, the top side was scraped to remove non-migrating cells, and the filters were stained with Diff-Quik stain (Dade Behring AG, Dudingen, Switzerland). The number of cells migrating (bottom of filter) were counted by light microscopy. The mean of three high-powered fields was then determined. The number of migrating cells was calculated by subtracting […]. All compounds were purchased from Sigma-RBI.
Experiments were performed to characterise the histamine receptor subtype involved in the eosinophil chemotactic response to histamine. Methodology was as detailed above. […] Eotaxin was included as a positive control for eosinophil chemotaxis.

[2] = system: isolated human eosinophils; conditions: described by Raible et al. (1994); cited from earlier work
PFI-013 [3] = biological target: T1, PFI-013 (Homo sapiens, UniProt Q9H3N8); test: FLIPR functional cell-based assay (intracellular calcium) in PFI-013-transfected HEK293 cells expressing mouse Gα15; parameters: expressed in transfected cells; host or cells: HEK293 cells expressing mouse Gα15, transient transfection; conditions: for activation of PFI-013 by histaminergic compounds: FIG. 8, rank order of potency N-α-methyl histamine > histamine > R-α-methyl histamine = histamine-1-methyl
Experimental: Fluorescence Imaging Plate Reader (FLIPR®) technology was employed as a means to detect activation of PFI-013 by histamine or histamine agonists in a cell-based assay.
5×10^6 Human Embryonic Kidney (HEK) 293 cells expressing the mouse Gα15 gene (from here on called ‘293 cells’), were transiently transfected with 7.5 μg of PFI-013 (contained within the pcDNA4HISmaxB (Invitrogen) plasmid) vector, or vector alone, using Lipofectamine Plus® reagent (Gibco BRL) as per the manufacturer's protocol. The PFI-013 cDNA had been cloned into pcDNA4HISmaxB using restriction sites KpnI and NotI to excise the PFI-013 cDNA from pcDNA3.1/V5-His-TOPO and to insert the cDNA into pcDNA4HISmaxB using standard molecular biology techniques (e.g. according to Sambrook, et al., eds. (1989) Molecular Cloning: A Laboratory Manual, Cold Spring Harbor Laboratory Press, New York, N.Y., USA) and using T4 DNA ligase to join the fragments; pcDNA4HISmaxB was used as it contains elements that up-regulate the level of gene transcription over standard pcDNA3.1 vectors). 24 hrs post-transfection, the cells were detached from the flask using Trypsin/EDTA solution (LTI) and seeded into a black sided, Poly-D-lysine-treated, 96-well plate (Becton Dickinson) at 5×10^4 cells/well density. The plates were left overnight to allow the cells to adhere to the bottom of the wells. The medium was removed from the cells and replaced with 100 μl warm (37° C.) dye loading solution (50 μg Fluo3 (Molecular probes) in 20 μl DMSO+20% pluronic acid in DMSO, added to 11 ml Dulbecco's Modified Eagles Medium containing 1×Probenecid (100×Probenecid—0.71 g Probenecid was dissolved in 5 ml 1M NaOH and 5 ml Dulbeccos' Phosphate Buffered Saline (PBS), per plate; Probenecid (Molecular Devices) inhibits activity of the anion transport protein, thus improving dye loading). The plates were then incubated for 1 hr at 37° C. Plates were subsequently washed with 250 μl of wash buffer per well (5 ml 100×Probenecid stock+495 ml PBS, pH 7.4) 4 times. The plates were returned to the 37° C./5% CO2 incubator for 30 mins prior to processing within the FLIPR® instrument. The FLIPR® processing involved reading the fluorescence for all samples for 2 minutes; during this time the fluorescence baseline was determined for 10 seconds. The desired amount of compound (i.e. histamine or histamine agonists) was then automatically transferred to the wells and the fluorescence was continuously monitored for the remainder of the time. All compounds were diluted in wash buffer.
Using methodology as described in detail above, the effect of histamine on the functional activation of PFI-013 was investigated.
Using methodology as described in detail above, the effect of histaminergic compounds on the functional activation of PFI-013 was investigated.
FIG. 8 depicts the action of various histaminergic compounds (columns 2 to 10) serially diluted from […] (rows A and B) down to 0.5 μM in duplicate (rows G and H), on PFI-013-transfected 293 cells (FIG. 8A) or vector-only transfected 293 cells (FIG. 8B). Remaining wells contained buffer only with no compound.

[4] = system: isolated human eosinophils; test: Inhibition of histamine-induced chemotaxis of IL-5-primed human eosinophils; assay type: cell-based; conditions: for IC50: Homo sapiens, Eosinophil, histamine 30 nM as agonist, antagonists at 10, 1 and 0.1 μM, preliminary results, FIG. 10C, read-out: IC50 for antagonising histamine-induced chemotaxis of human eosinophils; for reduction of the chemotactic response of isolated human eosinophils to histamine dihydrochloride: antagonists at a single concentration of 10 μM, IL-5-primed eosinophils, FIG. 10B
Experimental: as §1
Antagonist experiments were performed to further characterise the histamine receptor subtype involved in the eosinophil chemotactic response to histamine. […] Antagonists were used at a single concentration of 10 μM. Antagonists tested were: mepyramine maleate (histamine H1 antagonist), cimetidine (histamine H2 antagonist), thioperamide (histamine H3 antagonist) and clobenpropit (histamine H3 antagonist).
A further experiment was performed to determine the IC50 of both thioperamide and clobenpropit (histamine H3 antagonists) for inhibiting isolated human eosinophil in vitro chemotaxis. Methodology was as above, using thioperamide and clobenpropit at 10 μM, 1 μM and 0.1 μM concentrations (Histamine, as the agonist, was used at 30 nM).

PFI-013 [5] = biological target: T1, PFI-013; conditions: 3H-histamine 0.72-1500 nM; difference between PFI-013-transfected and mock-transfected CHO-K1 membranes; preliminary data, FIG. 6

T1 sequence (Q9H3N8 whole entry): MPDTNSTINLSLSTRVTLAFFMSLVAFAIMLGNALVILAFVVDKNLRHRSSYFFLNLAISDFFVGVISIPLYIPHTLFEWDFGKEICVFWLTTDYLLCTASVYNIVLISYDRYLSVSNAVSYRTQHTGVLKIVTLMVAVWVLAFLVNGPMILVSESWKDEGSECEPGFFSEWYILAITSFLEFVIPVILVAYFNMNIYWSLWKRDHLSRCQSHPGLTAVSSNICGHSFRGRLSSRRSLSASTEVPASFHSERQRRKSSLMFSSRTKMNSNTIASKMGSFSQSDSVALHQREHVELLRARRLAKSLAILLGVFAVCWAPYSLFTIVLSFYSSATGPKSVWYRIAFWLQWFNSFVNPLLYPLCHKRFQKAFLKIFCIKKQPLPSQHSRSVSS

| Compound | chemotactic response of isolated human eosinophils [1] | activation of PFI-013 by histaminergic compounds (PFI-013 [3]) | further results |
| --- | --- | --- | --- |
| CNC(=S)NCCCCc1cnc[nH]1 [Burimamide] | displayed no chemotactic activity |  | effect on intracellular Ca2+ production in isolated human eosinophils [2]: partial agonist effect |
| CN(C)CCCSC(=N)N [Dimaprit] | displayed no chemotactic activity | no activation of PFI-013 could be detected |  |
| CC(CCCCC(=O)Nc1ccc(C(F)(F)F)cc1)NCCc1cnc[nH]1.O=C(O)/C=C\C(=O)O.O=C(O)/C=C\C(=O)O (stereo not shown) [HTMT, HTMT dimaleate] | very weak chemotactic response only at the highest concentration tested (1 μM) |  |  |
| N=C(N)SCCc1cnc[nH]1 [Imetit] | displayed no chemotactic activity | no activation of PFI-013 could be detected |  |
| N[C@@H](Cc1c[nH]cn1)C(=O)O [L-histidine] |  | no activation of PFI-013 could be detected |  |
| CNCCc1cnc[nH]1 [N-α-methyl histamine] |  | activated |  |
| C[C@@H](N)Cc1c[nH]cn1 [R-α-methyl histamine] |  | activated |  |
| NC(=NCc1ccc(Cl)cc1)SCCCc1cnc[nH]1 [clobenpropit] |  | no activation of PFI-013 could be detected | IC50 [4]: 1.5 µM; reduction of the chemotactic response of isolated human eosinophils to histamine dihydrochloride [4]: greatest effect on the reduction of the chemotactic response |
| Cl.Cl.NCCc1c[nH]cn1 [histamine dihydrochloride] | induced a significant chemotactic response |  |  |
| Cn1cnc(CCN)c1 [histamine-1-methyl] |  | activated |  |
| NCCc1c[nH]cn1 [histamine] |  | activated | binding of histamine to PFI-013 (PFI-013 [5]): binds to PFI-013, albeit with relatively low affinity; activation of PFI-013 by histamine (transient increase in intracellular calcium) (PFI-013 [3]; at the 10 μM concentration, tested 10 μM serially diluted in log steps down to 10 pM, versus vector-only cells, FIG. 7): specific activation of PFI-013 |
| COc1ccc2c(c1OC)C(=O)O[C@@H]2[C@H]1c2c(cc3c(c2OC)OCO3)CCN1C [noscapine] |  | no activation of PFI-013 could be detected |  |
| S=C(NC1CCCCC1)N1CCC(c2cnc[nH]2)CC1 [thioperamide] |  |  | IC50 [4]: 0.83 µM; reduction of the chemotactic response of isolated human eosinophils to histamine dihydrochloride [4]: greatest effect on the reduction of the chemotactic response |
| IL-5: interleukin-5, used to prime the eosinophils for chemotaxis studies |  |  | effect of IL-5 priming of eosinophils on the chemotactic response to histamine ([4]; IL-5 pretreatment of the eosinophils, FIG. 10A): enhance the chemotactic response to histamine |

Source: patent US20030149242A1, “Novel polypeptide” (Pfizer Inc., priority 1999, published 2003)
